Results taken from patent US20240156822A1, “Methods For Treatment of Vitiligo” (Pfizer Inc., priority 2022, published 2024).

Tested on: vitiligo
Assay: Clinical study of treatment of vitiligo: central read facial-VASI (primary efficacy endpoint)
Type: in vivo, human
Conditions: for Placebo-adjusted LS mean CFB (SE); % CFB in Central F-VASI at Week 24: oral once daily
Experimental: Subjects take the medication set forth herein orally once daily, and typically swallow the tablets whole with approximately one cup of ambient temperature water, without any manipulation or chewing. Dosing regimes include induction dosing of 100 or 200 mg and maintenance dosing of 50 mg, or a 24-week Treatment Period in which participants were treated with ritlecitinib 50 mg, 30 mg, or 10 mg. The induction period is an initial period of treatment of 4 weeks in the initial clinical trial. The maintenance period is 20 weeks Tablets may be taken with or without food. Subject response is evaluated at regular intervals after administration. The Vitiligo Area Scoring Index (VASI) is a validated quantitative scale, initially developed to measure the response of vitiligo to nbUVB treatment, but has since been used to evaluate various therapies for vitiligo. Clinical evaluations of vitiligo in this study include VASI, central read and site assessment of facial-VASI, static Investigator Global Assessment (sIGA), Body Surface Area (BSA) involvement, Vitiligo Extent Score (VES), and dermoscopy. Self-Assessment VES (SA-VES), Vitiligo Specific Quality of Life (VitiQoL), Dermatology Life Quality Index (DLQL), Hospital Anxiety and Depression Scale (HADS), Patient Global Impression of Change Vitiligo (PGIC-V), EQ-5D-5L, Healthcare Resource Utilization (HCRU) and Vitiligo Noticeability Scale (VNS). (b) Facial Vitiligo Area Scoring Index (Facial-VASI)—Central Read The central read facial-VASI are assessed based on the facial photographs taken at the site by a central reader. Clinical Trial Imaging Endpoint Process Standards—Guidance for Industry (April 2018). The central read facial-VASI is calculated using a formula that includes contribution of affected facial surface areas showing all six (6) different depigmentation rates (0.1, 0.25, 0.5, 0.75, 0.9 and 1) with a modified method described by Hamzavi et al. Hamzavi, I., […] The calculation of % affected total body surface area (BSA) is shown below: • Affected Facial Surface Area×4=% Affected Total Body Surface Area. Face is defined as the area from the hairline on top of the forehead to the jawline at the bottom of the cheeks. Facial-VASI (central read) will range from 0.000 to 4.000 by defining the affected Facial Surface Area (expressed as the value between 0.0 to 1.0) being 4% of total Body Surface Area. For example: 25% affected Facial Surface Area (0.25) represents 1% total body surface area (0.25×4). 15% affected Facial Surface Area (0.15) represents 0.6% total body surface area (0.15×4). The extent of depigmentation is expressed by the following percentages: 0, 10%, 25%, 50%, 75%, 90%, or 100%. At 100% depigmentation, no pigment is present; at 90%, specks of pigment are present; at 75%, the depigmented exceeded the pigmented area; at 50%, the depigmented and pigmented areas are equal; at 25%, the pigmented area exceeded the depigmented area; and at 10%, only specks of depigmentation are present. Scalp, neck, eyebrows, eyelashes, and vermilion are excluded from this calculation, although total VASI assessment includes all of these regions.

C=CC(=O)N1C[C@H](Nc2ncnc3[nH]ccc23)CC[C@@H]1C [Ritlecitinib, 1-[(2S,5R)-2-methyl-5-(7H-pyrrolo[2,3-d]pyrimidin-4-ylamino)-1-piperidinyl]-2-propen-1-one]
Efficacy criterion for the primary endpoint (% CFB in Central F-VASI at Week 24) (initial clinical studies): met the efficacy criterion for the primary endpoint
Placebo-adjusted LS mean CFB (SE); % CFB in Central F-VASI at Week 24 (treatment group 10 mg, 24-week treatment period): −4.13%
Placebo-adjusted LS mean CFB (SE); % CFB in Central F-VASI at Week 24 (treatment group 30 mg, 24-week treatment period): −16.93%
Placebo-adjusted LS mean CFB (SE); % CFB in Central F-VASI at Week 24 (treatment group 50 mg, 24-week treatment period): −22.05%
Placebo-adjusted LS mean CFB (SE); % CFB in Central F-VASI at Week 24 (treatment group 100/50 mg (induction 100 mg 4 weeks, maintenance 50 mg 20 weeks)): −22.99%
Placebo-adjusted LS mean CFB (SE); % CFB in Central F-VASI at Week 24 (treatment group 200/50 mg (induction 200 mg 4 weeks, maintenance 50 mg 20 weeks)): −23.62%
